From ChEMBL document CHEMBL5252645, “Hydroxylated cyclopamine analogues from Veratrum californicum and their hedgehog pathway inhibiting activity” (Bioorg Med Chem, 2023)

Columns and labels:
[1] = Inhibition of Shh-induced hedgehog signalling pathway in mouse MEF cells expressing Gli-Luc reporter gene assessed as reduction in Gli1 transcription activity incubated for 24 hrs in presence of mouse shh stimulation by dual luciferase Assay; format: cell-based
[2] = Inhibition of Shh-induced hedgehog signalling pathway in mouse NIH/3T3 cells expressing Gli-Luc reporter gene assessed as reduction in Gli1 transcription activity incubated for 24 hrs in presence of mouse shh stimulation by dual luciferase Assay; format: cell-based; conditions: NIH3T3, 24 h

Row | IC50 [1] | IC50 [2] | Compound
1 | 210 nM | 150 nM | CC1=C2C[C@H]3[C@@H](CC=C4C[C@@H](O)CC[C@@]43C)[C@@H]2CC[C@]12O[C@@H]1[C@H](O)[C@H](C)CN[C@H]1[C@H]2C
2 | 2800 nM | 2080 nM | C[C@@H]1CN[C@H]2[C@@H](C)[C@@]3(CC[C@@H]4C(=C3CO)C[C@H]3[C@H]4CC=C4C[C@@H](O)CC[C@@]43C)O[C@@H]2C1

Row | Compound | IC50 [1] | IC50 [2]
3 | CC1=C2C[C@H]3[C@@H](CC=C4C[C@@H](O)CC[C@@]43C)[C@@H]2CC[C@]12O[C@@H]1C[C@H](C)CN[C@H]1[C@H]2C [CYCLOPAMINE] | 110 nM | 270 nM
